{
  "source": "patent US20230295234A1",
  "about": "“ANTIMICROBIAL PEPTIDOMIMETICS” (SPEXIS AG, priority 2020, published 2023)",
  "key": {"[1]": {"tested_on": "Escherichia coli ATCC 25922", "conditions": "ATCC 25922", "method_in_brief": "(§1)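 First, bacterial colonies are suspended in saline and adjusted to 0.5 McFarland. Next, the suspension is diluted into cation-adjusted Mueller-Hinton II broth (approx. 5×10^5 CFU/mL). Finally, it is added to two-fold serially diluted peptide, with polysorbate 80 at 0.002% final.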"}, "[2]": {"tested_on": "Escherichia coli MCR-1 Af 45", "conditions": "MCR-1 Af 45", "method_in_brief": "as §1"}, "[3]": {"tested_on": "Klebsiella pneumoniae SSI3010", "conditions": "SSI3010", "method_in_brief": "as §1"}, "[4]": {"tested_on": "human red blood cells (hRBC)", "test": "Hemolysis of human red blood cells", "format": "cell-based", "conditions": "red cells of human, 1 h", "method_in_brief": "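Percent hemolysis is OD540 of peptide-treated supernatant relative to water-lysed cells. Each peptide was tested at 200 μg/mL against 20% (v/v) washed human erythrocytes. Incubation was 1 h at 37 °C, 300 rpm.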"}},
  "note": "Peptide text beside a SMILES is read from it.",
  "data": [
    {"smiles": "CC[C@H](C)[C@H](NC(=O)[C@@H]1CCCN1C(=O)[C@@H](NC(=O)[C@@H]1CCCN1C(=O)[C@H](CCCNC(=N)N)NC(=O)[C@@H](N)CCCCN)C(C)C)C(=O)N[C@H](C(=O)N[C@@H](Cc1ccc(O)cc1)C(=O)N[C@@H]1C(=O)N[C@@H](CC(N)=O)C(=O)N[C@@H](CCCNC(=N)N)C(=O)N[C@@H](CCN)C(=O)N[C@@H]([C@@H](C)O)C(=O)N[C@H](CCN)C(=O)N[C@@H](CCCCN)C(=O)N[C@H](C(=O)N[C@@H](CCN)C(=O)N[C@@H](CCCNC(=N)N)C(=O)N[C@@H](Cc2ccc(O)cc2)C(=O)O)CSSC1(C)C)[C@@H](C)O", "note": "[Example 87] (HELM PEPTIDE1{K.R.P.V.P.I.T.Y.[Pen].N.R.[Dab].T.[NCC[C@@H](N[*:1])C(=O)[*:2]].K.C.[Dab].R.Y}$PEPTIDE1,PEPTIDE1,9:R3-16:R3$$$V2.0)", "values": [
      {"measurement": "Escherichia coli ATCC 25922 MIC", "setting": "[1]", "value": "≤0.03125", "unit": "mg/L"},
      {"measurement": "Escherichia coli MCR-1 Af 45 MIC", "setting": "[2]", "value": "≤0.03125", "unit": "mg/L"},
      {"measurement": "Klebsiella pneumoniae SSI3010 MIC", "setting": "[3]", "value": 0.25, "unit": "mg/L"},
      {"measurement": "Hemolysis at 0.2 g/L", "setting": "[4]", "value": 0, "unit": "%"}
    ]},
    {"smiles": "CC[C@H](C)[C@H](NC(=O)[C@@H]1CCCN1C(=O)[C@@H](NC(=O)CN(C)C(=O)[C@H](CCCNC(=N)N)NC(=O)[C@@H](N)CCCCN)C(C)C)C(=O)N[C@H](C(=O)N[C@@H](Cc1ccc(O)cc1)C(=O)N[C@@H]1C(=O)N[C@@H](CC(N)=O)C(=O)N[C@@H](CCCNC(=N)N)C(=O)N[C@@H](CCN)C(=O)N[C@@H]([C@@H](C)O)C(=O)N[C@H](CCN)C(=O)N[C@@H](CCCCN)C(=O)N[C@H](C(=O)N[C@@H](CCN)C(=O)N[C@@H](CCCNC(=N)N)C(=O)N[C@@H](Cc2ccc(O)cc2)C(=O)O)CSSC1(C)C)[C@@H](C)O", "note": "[Example 88, Lys-Arg-Sar-Val-Pro-Ile-Thr-Tyr-Pen-Asn-Arg-Dab-Thr-^DDab-Lys-Cys-Dab-Arg-Tyr] (HELM PEPTIDE1{K.R.[Sar].V.P.I.T.Y.[Pen].N.R.[Dab].T.[NCC[C@@H](N[*:1])C(=O)[*:2]].K.C.[Dab].R.Y}$PEPTIDE1,PEPTIDE1,9:R3-16:R3$$$V2.0)", "values": [
      {"measurement": "Escherichia coli ATCC 25922 MIC", "setting": "[1]", "value": "≤0.03125", "unit": "mg/L"},
      {"measurement": "Escherichia coli MCR-1 Af 45 MIC", "setting": "[2]", "value": "≤0.03125", "unit": "mg/L"},
      {"measurement": "Klebsiella pneumoniae SSI3010 MIC", "setting": "[3]", "value": 0.0625, "unit": "mg/L"},
      {"measurement": "Hemolysis at 0.2 g/L", "setting": "[4]", "value": 0, "unit": "%"}
    ]},
    {"smiles": "CC[C@H](C)[C@H](NC(=O)[C@@H]1CCCN1C(=O)[C@@H](NC(=O)CN(C)C(=O)[C@H](CCCNC(=N)N)NC(=O)[C@@H](N)CCCCN)C(C)C)C(=O)N[C@@H](Cc1ccccc1)C(=O)N[C@@H](Cc1ccc(O)cc1)C(=O)N[C@@H]1C(=O)N[C@@H](CC(N)=O)C(=O)N[C@@H](CCCNC(=N)N)C(=O)N[C@@H](CCN)C(=O)N[C@@H]([C@@H](C)O)C(=O)N[C@H](CCN)C(=O)N[C@@H](CCCCN)C(=O)N[C@H](C(=O)N[C@@H](CCN)C(=O)N[C@@H](CCCNC(=N)N)C(=O)N[C@@H](Cc2ccc(O)cc2)C(=O)O)CSSC1(C)C", "note": "[Example 89, Lys-Arg-Sar-Val-Pro-Ile-Phe-Tyr-Pen-Asn-Arg-Dab-Thr-^DDab-Lys-Cys-Dab-Arg-Tyr] (HELM PEPTIDE1{K.R.[Sar].V.P.I.F.Y.[Pen].N.R.[Dab].T.[NCC[C@@H](N[*:1])C(=O)[*:2]].K.C.[Dab].R.Y}$PEPTIDE1,PEPTIDE1,9:R3-16:R3$$$V2.0)", "values": [
      {"measurement": "Escherichia coli ATCC 25922 MIC", "setting": "[1]", "value": 0.0625, "unit": "mg/L"},
      {"measurement": "Escherichia coli MCR-1 Af 45 MIC", "setting": "[2]", "value": "≤0.03125", "unit": "mg/L"},
      {"measurement": "Klebsiella pneumoniae SSI3010 MIC", "setting": "[3]", "value": 0.0625, "unit": "mg/L"},
      {"measurement": "Hemolysis at 0.2 g/L", "setting": "[4]", "value": 0, "unit": "%"}
    ]},
    {"smiles": "CC[C@H](C)[C@H](NC(=O)[C@@H](NC(=O)[C@@H]1CCCN1C(=O)[C@@H](NC(=O)[C@@H]1CCCN1C(=O)[C@@H](C)NC(=O)[C@@H](N)CCCCN)C(C)C)[C@@H](C)CC)C(=O)N[C@@H](Cc1ccc(O)cc1)C(=O)N[C@@H]1C(=O)N[C@@H](CC(N)=O)C(=O)N[C@@H](CCCNC(=N)N)C(=O)N[C@@H](CCN)C(=O)N[C@@H]([C@@H](C)O)C(=O)N[C@H](CCN)C(=O)N[C@@H](CCCCN)C(=O)N[C@H](C(=O)N[C@@H](CCN)C(=O)N[C@@H](CCCNC(=N)N)C(=O)N[C@@H](Cc2ccc(O)cc2)C(=O)O)CSSC1(C)C", "note": "[Example 90, Lys-^DAla-Pro-Val-Pro-Ile-Ile-Tyr-Pen-Asn-Arg-Dab-Thr-^DDab-Lys-Cys-Dab-Arg-Tyr] (HELM PEPTIDE1{K.[dA].P.V.P.I.I.Y.[Pen].N.R.[Dab].T.[NCC[C@@H](N[*:1])C(=O)[*:2]].K.C.[Dab].R.Y}$PEPTIDE1,PEPTIDE1,9:R3-16:R3$$$V2.0)", "values": [
      {"measurement": "Escherichia coli ATCC 25922 MIC", "setting": "[1]", "value": 0.25, "unit": "mg/L"},
      {"measurement": "Escherichia coli MCR-1 Af 45 MIC", "setting": "[2]", "value": 0.0625, "unit": "mg/L"},
      {"measurement": "Klebsiella pneumoniae SSI3010 MIC", "setting": "[3]", "value": 0.125, "unit": "mg/L"},
      {"measurement": "Hemolysis at 0.2 g/L", "setting": "[4]", "value": 0, "unit": "%"}
    ]},
    {"smiles": "CC[C@H](C)[C@H](NC(=O)[C@@H](NC(=O)[C@@H]1CCCN1C(=O)[C@@H](NC(=O)[C@@H]1CCCN1C(=O)CNC(=O)[C@@H](N)CCCCN)C(C)C)[C@@H](C)CC)C(=O)N[C@@H](Cc1ccc(O)cc1)C(=O)N[C@@H]1C(=O)N[C@@H](CC(N)=O)C(=O)N[C@@H](CCCNC(=N)N)C(=O)N[C@@H](CCN)C(=O)N[C@@H]([C@@H](C)O)C(=O)N[C@H](CCN)C(=O)N[C@@H](CCCCN)C(=O)N[C@H](C(=O)N[C@@H](CCN)C(=O)N[C@@H](CCCNC(=N)N)C(=O)N[C@@H](Cc2ccc(O)cc2)C(=O)O)CSSC1(C)C", "note": "[Example 91] (HELM PEPTIDE1{K.G.P.V.P.I.I.Y.[Pen].N.R.[Dab].T.[NCC[C@@H](N[*:1])C(=O)[*:2]].K.C.[Dab].R.Y}$PEPTIDE1,PEPTIDE1,9:R3-16:R3$$$V2.0)", "values": [
      {"measurement": "Escherichia coli ATCC 25922 MIC", "setting": "[1]", "value": 0.125, "unit": "mg/L"},
      {"measurement": "Escherichia coli MCR-1 Af 45 MIC", "setting": "[2]", "value": "≤0.03125", "unit": "mg/L"},
      {"measurement": "Klebsiella pneumoniae SSI3010 MIC", "setting": "[3]", "value": 0.125, "unit": "mg/L"},
      {"measurement": "Hemolysis at 0.2 g/L", "setting": "[4]", "value": 0, "unit": "%"}
    ]},
    {"smiles": "CC[C@H](C)[C@H](NC(=O)[C@@H](NC(=O)[C@@H]1CCCN1C(=O)[C@@H](NC(=O)[C@@H]1CCCN1C(=O)CN(C)C(=O)[C@@H](N)CCCCN)C(C)C)[C@@H](C)CC)C(=O)N[C@@H](Cc1ccc(O)cc1)C(=O)N[C@@H]1C(=O)N[C@@H](CC(N)=O)C(=O)N[C@@H](CCCNC(=N)N)C(=O)N[C@@H](CCN)C(=O)N[C@@H]([C@@H](C)O)C(=O)N[C@H](CCN)C(=O)N[C@@H](CCCCN)C(=O)N[C@H](C(=O)N[C@@H](CCN)C(=O)N[C@@H](CCCNC(=N)N)C(=O)N[C@@H](Cc2ccc(O)cc2)C(=O)O)CSSC1(C)C", "note": "[Example 92, Lys-Sar-Pro-Val-Pro-Ile-Ile-Tyr-Pen-Asn-Arg-Dab-Thr-^DDab-Lys-Cys-Dab-Arg-Tyr] (HELM PEPTIDE1{K.[Sar].P.V.P.I.I.Y.[Pen].N.R.[Dab].T.[NCC[C@@H](N[*:1])C(=O)[*:2]].K.C.[Dab].R.Y}$PEPTIDE1,PEPTIDE1,9:R3-16:R3$$$V2.0)", "values": [
      {"measurement": "Escherichia coli ATCC 25922 MIC", "setting": "[1]", "value": 0.0625, "unit": "mg/L"},
      {"measurement": "Escherichia coli MCR-1 Af 45 MIC", "setting": "[2]", "value": "≤0.03125", "unit": "mg/L"},
      {"measurement": "Klebsiella pneumoniae SSI3010 MIC", "setting": "[3]", "value": 0.0625, "unit": "mg/L"},
      {"measurement": "Hemolysis at 0.2 g/L", "setting": "[4]", "value": 0, "unit": "%"}
    ]},
    {"smiles": "CC[C@H](C)[C@H](NC(=O)[C@@H](NC(=O)[C@@H]1CCCN1C(=O)[C@@H](NC(=O)CNC(=O)CNC(=O)[C@@H](N)CCCCN)C(C)C)[C@@H](C)CC)C(=O)N[C@@H](Cc1ccc(O)cc1)C(=O)N[C@@H]1C(=O)N[C@@H](CC(N)=O)C(=O)N[C@@H](CCCNC(=N)N)C(=O)N[C@@H](CCN)C(=O)N[C@@H]([C@@H](C)O)C(=O)N[C@H](CCN)C(=O)N[C@@H](CCCCN)C(=O)N[C@H](C(=O)N[C@@H](CCN)C(=O)N[C@@H](CCCNC(=N)N)C(=O)N[C@@H](Cc2ccc(O)cc2)C(=O)O)CSSC1(C)C", "note": "[Example 93] (HELM PEPTIDE1{K.G.G.V.P.I.I.Y.[Pen].N.R.[Dab].T.[NCC[C@@H](N[*:1])C(=O)[*:2]].K.C.[Dab].R.Y}$PEPTIDE1,PEPTIDE1,9:R3-16:R3$$$V2.0)", "values": [
      {"measurement": "Escherichia coli ATCC 25922 MIC", "setting": "[1]", "value": 0.0625, "unit": "mg/L"},
      {"measurement": "Escherichia coli MCR-1 Af 45 MIC", "setting": "[2]", "value": 0.0625, "unit": "mg/L"},
      {"measurement": "Klebsiella pneumoniae SSI3010 MIC", "setting": "[3]", "value": 0.125, "unit": "mg/L"},
      {"measurement": "Hemolysis at 0.2 g/L", "setting": "[4]", "value": 0, "unit": "%"}
    ]}
  ]
}
